Like-named read-outs stand apart in the source and are kept apart here.
Tests used:
MV4;11 cells = test: Cell Titer-Glo Luminescent Cell Viability Assay, cell growth inhibition against MV4;11 cells; assay type: cell-based
Experimental: Cell growth inhibition against MV4;11 cells was confirmed for the synthetic compounds. The Cell Titer-Glo Luminescent Cell Viability Assay (Promega, USA) was used to determine the number of viable cells in culture based on quantitation of the ATP present, which signals the presence of metabolically active cells. This assay was run in a 96-well plate format arrayed in a 10-point dose curve, ranging from 0 to 50 μM with 4-fold dilutions for each compound. Cells are seeded on Day 0 at 3750 cells per well. At Day 5, a portion of each well is assayed for viability according to the Cell Titer-Glo protocol. Briefly, cells/plates were centrifuged at 1100×g for 5 minutes. 100 μL of media was removed from each well and replaced with 100 μL of CellTiter-Glo. The plates were shaken at room temperature for 10 minutes and measured on a luminescence plate reader. Another portion of each well from the Day 5 plate is used to seed a new 96 plate containing fresh compound and media set up in the equivalent 10-point dose curve array in order to continue the cell growth inhibition assay for another 5 days. A final timepoint is collected at Day 10 using the Cell Titer-Glo protocol. Luminescence was detected on an EnVision® Multilabel Plate Reader (Perkin Elmer, Waltham, Mass.) and IC50 determination was made using Graph Pad Prism software.

LSD1 = LSD1 (Homo sapiens, UniProt O60341); test: LSD1 10-dose IC50 fluorescence coupling enzyme assay (HRP/Amplex Red, resorufin); assay type: biochemical; conditions: 10 M histone H3(1-21)K4me2 peptide substrate; 3-fold serial dilution in duplicate starting at 100 μM
Experimental: Compounds were tested in a 10-dose IC50 mode fluorescence coupling enzyme assay with 3-fold serial dilution in duplicate starting at 100 μM. The production of FAD-dependent H2O2 as a result of demethylase activity of LSD1 on […] histone H3(1-21)K4me2 peptide substrate was measured by coupling with HRP and Amplex Red to yield resorufin (fluorescence measured at Ex/Em=535/590 nm on EnVision, Perkin Elmer).

[1] = Homo sapiens, MV4-11, 120 h, MV4;11 cells, Day 5, 10-point dose curve 0 to 50 μM, read-out: Cell Titer Glo IC50 (5 d)
[2] = Homo sapiens, MV4-11, MV4;11 cells, Day 10 (re-seeded at Day 5 with fresh compound), 10-point dose curve 0 to 50 μM, read-out: Cell Titer Glo IC50 (10 d)

| Compound | IC50 (MV4;11 cells; [1]) | IC50 (LSD1) | IC50 (MV4;11 cells; MV4;11 cells, Day 5, 10-point dose curve 0 to 50 μM, 2,2,2-trifluoroacetate, read-out: Cell Titer Glo IC50 (5 d)) | IC50 (MV4;11 cells; [2]) | IC50 (MV4;11 cells; MV4;11 cells, Day 10 (re-seeded at Day 5 with fresh compound), 10-point dose curve 0 to 50 μM, read-out: Cell Titer Glo IC50 (10 d)) |
| --- | --- | --- | --- | --- | --- |
| Cc1ccc(-n2nc(-c3ccc(C#N)c(F)c3)cc2C(=O)N2CCC(N)CC2)cc1 [Example 13, 4-(5-(4-Aminopiperidine-1-carbonyl)-1-(p-tolyl)-1H-pyrazol-3-yl)-2-fluorobenzonitrile] | 1000 to 10000 nM | 1000 to 10000 nM | – | – | – |
| COc1ccc(-n2nc(C(=O)N[C@H]3CCNC3)cc2-c2ccc(C#N)c(F)c2)cc1 [Example 26, (S)-5-(4-cyano-3-fluorophenyl)-1-(4-methoxyphenyl)-N-(pyrrolidin-3-yl)-1H-pyrazole-3-carboxamide 2,2,2-trifluoroacetate] | 1000 to 10000 nM | 500 to 1000 nM | – | – | – |
| COc1ccc(-n2cc(C(=O)N3CCC(N)CC3)c(-c3ccc(C#N)cc3)n2)cc1 [Example 86, 4-(4-(4-aminopiperidine-1-carbonyl)-1-(4-methoxyphenyl)-1H-pyrazol-3-yl)benzonitrile] | > 10000 nM | > 10000 nM | – | – | – |
| Cc1ccc(-n2nc(-c3ccc(C#N)c(F)c3)cc2C(=O)NC2CCNC2)cc1 (stereo not drawn) [Example 15, 3-(4-Cyano-3-fluorophenyl)-N-(pyrrolidin-3-yl)-1-(p-tolyl)-1H-pyrazole-5-carboxamide] | 1000 to 10000 nM | 500 to 1000 nM | – | – | – |
| COc1ccc(-n2nc(C(=O)N3CCCC(NC(=N)N)C3)cc2-c2ccc(C#N)c(F)c2)cc1 (stereo not drawn) [Example 29, 1-(1-(5-(4-Cyano-3-fluorophenyl)-1-(4-methoxyphenyl)-1H-pyrazole-3-carbonyl)piperidin-3-yl)guanidine 2,2,2-trifluoroacetate] | > 10000 nM | 1000 to 10000 nM | – | – | – |
| COc1ccc(-n2nc(C(=O)NC3CCNC3)cc2-c2ccc(C#N)c(F)c2)cc1 (stereo not drawn) [Example 21, 5-(4-Cyano-3-fluorophenyl)-1-(4-methoxyphenyl)-N-(pyrrolidin-3-yl)-1H-pyrazole-3-carboxamide] | 1000 to 10000 nM | 500 to 1000 nM | – | – | – |
| COc1ccc(-n2nc(C(=O)N[C@@H]3CCC[C@H](N)C3)cc2-c2ccc(C#N)c(F)c2)cc1 [Example 28, N-((1R,3S)-3-aminocyclohexyl)-5-(4-cyano-3-fluorophenyl)-1-(4-methoxyphenyl)-1H-pyrazole-3-carboxamide 2,2,2-trifluoroacetate] | 1000 to 10000 nM | 500 to 1000 nM | – | – | – |
| COC1CCN(c2ccc(-n3nc(C(=O)N4CCCC(N)C4)cc3-c3ccc(C#N)c(F)c3)cc2)CC1 (stereo in doubt) [Example 64, (R)-4-(3-(3-aminopiperidine-1-carbonyl)-1-(4-(4-methoxypiperidin-1-yl)phenyl)-1H-pyrazol-5-yl)-2-fluorobenzonitrile 2,2,2-trifluoroacetate] | – | < 500 nM | < 500 nM | – | < 500 nM |
| CN1CCN(c2ccc(-n3nc(C(=O)N4CCC[C@@H](N)C4)cc3-c3ccc(C#N)c(F)c3)cc2)CC1=O [Example 50, (R)-4-(3-(3-aminopiperidine-1-carbonyl)-1-(4-(4-methyl-3-oxopiperazin-1-yl)phenyl)-1H-pyrazol-5-yl)-2-fluorobenzonitrile] | – | < 500 nM | – | < 500 nM | – |
| CN1CCN(c2ccc(-n3nc(C(=O)N4CCC[C@@H](N)C4)cc3-c3ccc(C#N)c(F)c3)c(F)c2)CC1 [Example 67, (R)-4-(3-(3-aminopiperidine-1-carbonyl)-1-(2-fluoro-4-(4-methylpiperazin-1-yl)phenyl)-1H-pyrazol-5-yl)-2-fluorobenzonitrile] | – | < 500 nM | – | – | – |
| COc1ccc(-n2nc(-c3ccc(C#N)cc3)cc2C(=O)N2CCCC(N)C2)cc1 (stereo not drawn) [Example 4, 4-(5-(3-Aminopiperidine-1-carbonyl)-1-(4-methoxyphenyl)-1H-pyrazol-3-yl)benzonitrile] | 1000 to 10000 nM | < 500 nM | – | – | – |
| COc1ccc(-n2nc(C(=O)N3CCC(NC(=N)N)CC3)cc2-c2ccc(C#N)c(F)c2)cc1 [Example 30, 1-(1-(5-(4-Cyano-3-fluorophenyl)-1-(4-methoxyphenyl)-1H-pyrazole-3-carbonyl)piperidin-4-yl)guanidine 2,2,2-trifluoroacetate] | – | 1000 to 10000 nM | – | – | – |
| COc1cc(N2CCNC(=O)C2)ccc1-n1nc(C(=O)N2CCC[C@@H](N)C2)cc1-c1ccc(C#N)c(F)c1 [Example 51, (R)-4-(3-(3-aminopiperidine-1-carbonyl)-1-(2-methoxy-4-(3-oxopiperazin-1-yl)phenyl)-1H-pyrazol-5-yl)-2-fluorobenzonitrile] | – | < 500 nM | – | – | – |
| N#Cc1ccc(-c2cc(C(=O)N3CCC[C@@H](N)C3)nn2-c2ccc(N3CCNC(=O)C3)cc2)cc1F [Example 49, (R)-4-(3-(3-aminopiperidine-1-carbonyl)-1-(4-(3-oxopiperazin-1-yl)phenyl)-1H-pyrazol-5-yl)-2-fluorobenzonitrile] | – | < 500 nM | – | – | – |
| CN1CCN(c2ccc(-n3nc(-c4ccc(C#N)c(F)c4)cc3C(=O)N3CCC[C@@H](N)C3)cc2F)CC1 [Example 80, (R)-4-(5-(3-aminopiperidine-1-carbonyl)-1-(3-fluoro-4-(4-methylpiperazin-1-yl)phenyl)-1H-pyrazol-3-yl)-2-fluorobenzonitrile 2,2,2-trifluoroacetate] | – | < 500 nM | – | – | – |

Further lines, with some results ahead:

| IC50 (MV4;11 cells; [1]) | IC50 (LSD1) | IC50 (MV4;11 cells; MV4;11 cells, Day 5, 10-point dose curve 0 to 50 μM, 2,2,2-trifluoroacetate, read-out: Cell Titer Glo IC50 (5 d)) | Compound | IC50 (MV4;11 cells; [2]) | IC50 (MV4;11 cells; MV4;11 cells, Day 10 (re-seeded at Day 5 with fresh compound), 10-point dose curve 0 to 50 μM, read-out: Cell Titer Glo IC50 (10 d)) |
| --- | --- | --- | --- | --- | --- |
| < 500 nM | < 500 nM | – | COc1ccc(Cn2nc(C(=O)N3CCC[C@@H](N)C3)cc2-c2ccc(C#N)c(F)c2)cc1 [Example 33, (R)-4-(3-(3-aminopiperidine-1-carbonyl)-1-(4-methoxybenzyl)-1H-pyrazol-5-yl)-2-fluorobenzonitrile 2,2,2-trifluoroacetate] | – | – |
| 1000 to 10000 nM | < 500 nM | – | Cn1cc2cc(-n3nc(-c4ccc(C#N)c(F)c4)cc3C(=O)N3CCCC(N)C3)ccc2n1 (stereo not drawn) [Example 41, 4-(5-(3-Aminopiperidine-1-carbonyl)-1-(2-methyl-2H-indazol-5-yl)-1H-pyrazol-3-yl)-2-fluorobenzonitrile] | – | – |
| – | < 500 nM | – | N#Cc1ccc(-c2cc(C(=O)N3CCC[C@@H](N)C3)nn2-c2ccc(N3CCC(OCCCO)CC3)cc2)cc1F [Example 69, (R)-4-(3-(3-Aminopiperidine-1-carbonyl)-1-(4-(4-(3-hydroxypropoxy)piperidin-1-yl)phenyl)-1H-pyrazol-5-yl)-2-fluorobenzonitrile 2,2,2-trifluoroacetate] | < 500 nM | – |
| 500 to 1000 nM | < 500 nM | – | Cn1ncc2cc(-n3nc(C(=O)N4CCC[C@H](N)C4)cc3-c3ccc(C#N)c(F)c3)ccc21 [Example 42, (S)-4-(3-(3-aminopiperidine-1-carbonyl)-1-(1-methyl-1H-indazol-5-yl)-1H-pyrazol-5-yl)-2-fluorobenzonitrile 2,2,2-trifluoroacetate] | < 500 nM | – |
| < 500 nM | < 500 nM | – | Cc1ccc(-n2nc(C(=O)N3CCCC(N)C3)cc2-c2ccc(C#N)c(F)c2)cc1 (stereo not drawn) [Example 6, 4-(3-(3-Aminopiperidine-1-carbonyl)-1-(p-tolyl)-1H-pyrazol-5-yl)-2-fluorobenzonitrile] | – | – |
| < 500 nM | < 500 nM | – | Cn1cc2cc(-n3nc(C(=O)N4CCC[C@H](N)C4)cc3-c3ccc(C#N)c(F)c3)ccc2n1 [Example 44, (S)-4-(3-(3-aminopiperidine-1-carbonyl)-1-(2-methyl-2H-indazol-5-yl)-1H-pyrazol-5-yl)-2-fluorobenzonitrile 2,2,2-trifluoroacetate] | < 500 nM | – |
| < 500 nM | < 500 nM | – | COc1ccc(-n2nc(C(=O)N3CCC[C@@H](N)C3)cc2-c2ccc(C#N)c(F)c2)cc1F [Example 36, (R)-4-(3-(3-aminopiperidine-1-carbonyl)-1-(3-fluoro-4-methoxyphenyl)-1H-pyrazol-5-yl)-2-fluorobenzonitrile] | – | – |
